The values that follow come from patent US4956381A, “Treating tissue calcium depletion or degenerative processes in bone or cartilage” (Sandoz Ltd., priority 1987, dated 1990).

For one data set, the system named is human monocytes. Briefly: LAF-test (thymocyte proliferation), monokine production by human monocytes. The following applies: Monocyte, substantially pure Z-isomeric form, 2 separate experiments, 3 parallel determinations, read-out: ED50 (inhibition of monokine production). It counts as cell-based. The procedure:
(§1) Mononuclear cells are obtained from the blood of healthy volunteers via centrifugation and cultivated on tissue culture dishes with test compound at varying concentrations [Schnyder et al., J. Immunol., 138, 496-503 (1987)]. The non-adherent lymphocytes are removed after 4 hours by washing several times. Fresh medium, test compound and lipopolysaccharide (LPS) as stimulant are added and the monocytes incubated for further 19 hours. The pooled culture media are diluted 1:10 (v:v) with fresh medium and added to confluent rabbit chondrocytes. MP activity in the chondrocyte culture medium is assayed after a further 2 days. COMPOUNDS OF THE INVENTION, in particular compounds D2 and K1, are active in suppressing monokine release in the above test method at concentrations of the order of from about 30 to about 100 μM. Thus determined ED50 S for the compounds D2 and K1 each in substantially pure Z-isomeric form in a series of 3 or 7 separate experiments each with 3 parallel determinations are, for both compounds, of the order of 60 to 100 μM.
Lymphocyte proliferation is the standard test for monokine activity. […] The cells are incubated for 2 days in 96-well culture plates and the proliferation rate determined using a ^3 H-thymidine pulse (1 μC/well) during the final 6 hours. The incorporated radioactivity is collected on filter paper and counted. […]

In another data set the test system is recombinant human IL-2. Kind of data set: Recombinant human IL-2 induced mouse thymocyte proliferation. The following applies: 10 ng/ml rh IL-2. It counts as cell-based. On the procedure: (§2) Lymphocyte proliferation is the standard test for monokine activity. It is highly sensitive, though relatively unspecific, with IL-2, phorbol myristate acetate, concanavalin A' g-type-prostaglandin and indomethacin-nall effecting disturbance. Human monocyte culture media are prepared as described under I.I.b. above, diluted 1:10, 1:20 and 1:40 (v:v), and added to […] (obtained from C3H/HeJ mice) Dulbecco's modified Eagle's medium, containing 20 mM hydroxyethyl-piperazin-ethane-sulfonic acid, 12 mM NaHCO3, 2 mM glutamine, 2% foetal bovine serum, 10 μM 2-mercaptoethanol, […] and antibiotics. The cells are incubated for 2 days in 96-well culture plates and the proliferation rate determined using a ^3 H-thymidine pulse (1 μC/well) during the final 6 hours. The incorporated radioactivity is collected on filter paper and counted. […] Thus determined ED50 s for the compounds D2 and K1 each in substantially pure Z-isomeric form in a series of 2 separate experiments each with 3 parallel determinations are of the order of 30 μM
(§3) In order to rule out an antagonistic effect or a direct influence of the COMPOUNDS OF THE INVENTION on the proliferation of mouse thymocytes which are used above in the LAF-test, the effect of the COMPOUNDS OF THE INVENTION on the incorporation of ^3 H-thymidine Is determined after thymocyte stimulation with recombinant human IL-1 or IL-2.

For another data set, the system named is recombinant human IL-1. Briefly: Recombinant human IL-1 induced mouse thymocyte proliferation. It is filed as cell-based. The settings on record: 75 ng/ml rh IL-1. On the procedure:
as §2, §3

The subject of a further data set is IL-1. Kind of data set: IL-1 induced secretion of metalloproteinase (MP) in chondrocytes. It is filed as cell-based. The following applies: 2 days incubation. On the procedure:
Furthermore the influence on IL-1 induced secretion of MP is determined using chondrocytes as a target system for IL-1. IL-1 (Genzyme Corporation,USA) is added with or without a COMPOUND OF THE INVENTION or Dexamethasone (control) to chondrocytes and the activity or metalloproteinase is determined in the supernatant media of 2 days incubation period.

A further data set relates to IL-1β. Kind of data set: RIA-Kit IL-1 quantification in human monocyte cultures. It is filed as cell-based. On the procedure:
as §1
The procedures of example 1.1.b. above are repeated and IL-1 concentrations in recovered, undiluted culture medium determined employing a CISTRON IL-1 radioimmuno assay kit (the CISTRON kit is obtainable from Cistron, 10, Bloomfield Avenue, P.O. Box 2004, Pine Brook, NJ 07 058 USA. It is IL-1β specific and recognises both intra- and extra-cellular material).

For the next data set, the system named is pulmonary fibrosis. Kind of data set: Pulmonary fibrosis (bleomycin induced). It counts as in vivo, New Zealand white rabbits. The following applies: ca. 2.5 to 60 mg/kg/day p.o.; substantially pure Z-isomeric form; vs placebo. On the procedure:
Testing is carried out in accordance with the general methodology described by G. J. Laurent et al. in Eur. J. Clin. Invest. (1981) 11, 441-448. Pulmonary fibrosis is induced in groups of 4 New Zealand white rabbits (aged 127 days at commencement of the experiment), each weighing 2.0-2.5 kg, by intratracheal instillation of 10 mg/kg bleomycin. The lungs of test animals are examined 2, 4 and 8 weeks later.

The subject of a further data set is periodontal disease. Briefly: Clinical trial III: calcium resorption - periodontal disease. It is filed as in vivo, human. The following applies: ca. 400 to 1200 mg p.o./day or injection ca. 0.5 or 1.0 to 5.0 mg per gum pouch; after ca. 2 to 3 weeks. The procedure:
COMPOUND OF THE INVENTION, e.g. compound D2 or K1 in substantially pure Z-isomeric form, is administered at dosages of from ca. 400 to 1200 mg/p.o./day administered once or in divided dosages up to 4x daily, or by injection into the gum at the site of disease at dosages of the order of about 0.5 or 1.0 to about 5.0 mg into each gum pouch. The subjects are examined at regular weekly or 2x weekly intervals for disease progression.

Data set [1] has as its system psoriatic arthritis or seronegative spondylarthrosis or osteoarthrosis. Kind of data set: Clinical trial IV: degenerative joint disease. It is filed as in vivo, human. The following applies: ca. 200 to 1200 mg p.o./day, 8 weeks. The procedure:
COMPOUND OF THE INVENTION, e.g. compound D2 or K1 in substantially pure Z-isomeric form, is administered at dosages of from ca. 200 to 1200 mg/p.o./day, once or in divided dosages up to 4×daily for 8 weeks. The subjects are examined at a regular interval of 2 weeks for disease progression on parameters such as pain sensation at the joints, evaluation of the functional capacity according to Steinbrocker, hand grip strength or Richtie Index.

For the next data set, the system named is beagle dogs. Briefly: Tolerability / pilot toxicology in beagle dogs. The settings on record: 150 and 200 mg/kg p.o., gelatine capsules over 5 weeks, olive oil week 6 to 8; substantially pure Z-isomeric form. It counts as in vivo.
[2] abbreviates: 3H-thymidine incorporation, mouse thymocytes.
Setting [3] is: CISTRON IL-1 radioimmuno assay, human monocytes.

The structures appear in SMILES notation.

As to `COC1=Cc2ccccc2/C(=C/C(=O)O)c2cc(Cl)sc21` [Compound K1, [2-Chloro-10-methoxy-4H-benzo[4,5]cyclohepta[1,2-b]thiophen-4-ylidene]-acetic acid], the IC50 in the data set with human monocytes was approximately 30 µM; in the data set with IL-1β (Homo sapiens, Monocyte, 19 h, substantially pure Z-isomeric form, 2-8 experiments, 3 parallel determinations, read-out: ED50 for extra-cellular IL-1 level suppression), approximately 25 µM. Moreover, the “concentration dependency of influence on rh IL-2 induced proliferation” value with recombinant human IL-2 is on record as “no concentration dependency is detectable”. The “influence on recombinant human IL-2 induced proliferation” value in the data set with recombinant human IL-2 (setting [2]) is reported as “no significant influence”. The “concentration dependency of influence on rh IL-1 induced proliferation” value in the data set on recombinant human IL-1 is given as “no concentration dependency is detectable”. Besides, in the data set on recombinant human IL-1 (setting [2]), the “influence on recombinant human IL-1 induced proliferation” value was “no significant influence”. Besides, the “influence on IL-1 induced secretion of MP” value in the data set on IL-1 is “do not influence the IL-1 induced secretion of MP”. Further, the “extra-cellular IL-1 level” value in the data set on IL-1β (setting [3]) is on record as “extra-cellular content is reduced significantly”. Also, the “intracellular IL-1 level” value in the data set with IL-1β (setting [3]) is reported as “remain substantially unaffected”. Moreover, in the data set with pulmonary fibrosis, the pulmonary fibrosis result is on record as “substantial reduction of pulmonary fibrosis”. The “condition (periodontal disease)” value in the data set on periodontal disease is on record as “marked improvement in condition after ca. 2 to 3 weeks continuous therapy”. Moreover, the “condition (degenerative joint disease)” value in [1] is “improvement in condition after the 8 week treatment period”. In addition, the pathological effects entry with beagle dogs is listed as “no pathological effects are observed”.
